# Patent publication US12521440B2, “Degradation of bruton's tyrosine kinase (BTK) by conjugation of BTK inhibitors with E3 ligase ligand and methods of use” (BeOne Medicines I GmbH, priority 2021, dated 2026)
# Structures can show the parent of a compound that is named as a salt.
# Tests used:
# [1] = target: T1, BTK (Homo sapiens, UniProt Q06187); assay: BTK degradation in TMD-8 cells (HTRF assay); assay type: cell-based; settings: 6 h treatment, HTRF BTK degradation IC50 (DC50)
# T1 construct: endogenous in cells; host or cells: TMD-8 cells
# T1 sequence (Q06187 whole entry): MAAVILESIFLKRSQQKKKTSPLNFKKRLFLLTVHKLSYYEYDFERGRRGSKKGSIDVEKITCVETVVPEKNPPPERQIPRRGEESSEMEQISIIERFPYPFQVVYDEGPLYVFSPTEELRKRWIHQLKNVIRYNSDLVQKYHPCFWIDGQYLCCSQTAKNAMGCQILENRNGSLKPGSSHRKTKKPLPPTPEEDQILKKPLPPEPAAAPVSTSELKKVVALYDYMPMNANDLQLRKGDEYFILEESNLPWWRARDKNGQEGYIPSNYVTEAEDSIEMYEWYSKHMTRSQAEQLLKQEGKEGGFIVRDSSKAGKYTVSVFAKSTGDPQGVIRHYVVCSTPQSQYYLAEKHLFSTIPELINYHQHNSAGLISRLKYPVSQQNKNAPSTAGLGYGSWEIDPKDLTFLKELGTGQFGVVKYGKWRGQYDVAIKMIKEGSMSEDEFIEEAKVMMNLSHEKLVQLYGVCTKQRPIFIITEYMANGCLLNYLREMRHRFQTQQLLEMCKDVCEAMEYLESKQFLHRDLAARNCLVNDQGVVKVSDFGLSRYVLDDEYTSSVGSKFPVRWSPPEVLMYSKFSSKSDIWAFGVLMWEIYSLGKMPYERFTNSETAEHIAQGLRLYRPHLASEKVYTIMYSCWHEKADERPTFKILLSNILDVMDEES
# Outline: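 BTK levels measured by HTRF (665/620 nm) in lysates of TMD-8 cells after 6 h compound treatment, with antibody incubation overnight at room temperature. Dosing covered 8 points, 6-fold dilutions from 1 mM 500× stocks, 0.2% DMSO final. Four-parameter curve fitting gave DC50.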
# [2] = tested on: HEK-293 cells; assay: HEK-293 cytotoxicity detection (CellTiter-Glo); assay type: cell-based; settings: Homo sapiens, 72 h incubation, read-out: HEK293
# Outline: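 Cytotoxicity IC50 derived by four-parameter curve fitting of percent inhibition of CellTiter-Glo luminescence. Compounds tested at 8 doses in 4-fold steps, 0.2% DMSO, on HEK-293 cells for 72 h.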
DC50 [1],SMILES,IC50 [2]
1.35 nM,"Cc1cc(-c2cc(Nc3ccc(N4CCN(CCc5cccc6c5oc(=O)n6C5CCC(=O)NC5=O)CC4)cn3)ncn2)ccc1[C@@H](C)NC(=O)c1nc(C(C)(C)C)no1 (stereo partly drawn) [Example 51, 3-(tert-butyl)-N-((1R)-1-(4-(6-((5-(4-(2-(3-(2,6-dioxopiperidin-3-yl)-2-oxo-2,3-dihydrobenzo[d]oxazol-7-yl)ethyl)piperazin-1-yl)pyridin-2-yl)amino)pyrimidin-4-yl)-2-methylphenyl)ethyl)-1,2,4-oxadiazole-5-carboxamide formate]",> 10000 nM
3.04 nM,"Cc1cc(-c2cc(Nc3ccc(N4CCN([C@H]5C[C@@H](c6ccc(N[C@@H]7CCC(=O)NC7=O)cc6)C5)CC4)cn3)ncn2)ccc1[C@@H](C)NC(=O)c1nc(C(C)(C)C)no1 [Example 52, 3-(tert-butyl)-N—((R)-1-(4-(6-((5-(4-((1S,3s)-3-(4-(((R)-2,6-dioxopiperidin-3-yl)amino)phenyl)cyclobutyl)piperazin-1-yl)pyridin-2-yl)amino)pyrimidin-4-yl)-2-methylphenyl)ethyl)-1,2,4-oxadiazole-5-carboxamide]",> 10000 nM
1.91 nM,"Cc1cc(-c2cc(Nc3ccc(N4CCN([C@H]5C[C@H](c6ccc(N[C@H]7CCC(=O)NC7=O)cc6)C5)CC4)cn3)ncn2)ccc1[C@@H](C)NC(=O)c1nc(C(C)(C)C)no1 [Example 53, 3-(tert-butyl)-N—((R)-1-(4-(6-((5-(4-((1S,3r)-3-(4-(((S)-2,6-dioxopiperidin-3-yl)amino)phenyl)cyclobutyl)piperazin-1-yl)pyridin-2-yl)amino)pyrimidin-4-yl)-2-methylphenyl)ethyl)-1,2,4-oxadiazole-5-carboxamide formate]",> 10000 nM
4.13 nM,"Cc1cc(-c2cc(Nc3ccc(N4CCN([C@H]5C[C@@H](c6ccc(N[C@H]7CCC(=O)NC7=O)cc6)C5)CC4)cn3)ncn2)ccc1[C@@H](C)NC(=O)c1nc(C(C)(C)C)no1 [Example 54, 3-(tert-butyl)-N—((R)-1-(4-(6-((5-(4-((1R,3s)-3-(4-(((S)-2,6-dioxopiperidin-3-yl)amino)phenyl)cyclobutyl)piperazin-1-yl)pyridin-2-yl)amino)pyrimidin-4-yl)-2-methylphenyl)ethyl)-1,2,4-oxadiazole-5-carboxamide]",> 10000 nM
2.08 nM,"Cc1cc(-c2cc(Nc3ccc(N4CCN([C@H]5C[C@H](c6ccc(N[C@@H]7CCC(=O)NC7=O)cc6)C5)CC4)cn3)ncn2)ccc1[C@@H](C)NC(=O)c1nc(C(C)(C)C)no1 [Example 55, 3-(tert-butyl)-N—((R)-1-(4-(6-((5-(4-((1R,3r)-3-(4-(((R)-2,6-dioxopiperidin-3-yl)amino)phenyl)cyclobutyl)piperazin-1-yl)pyridin-2-yl)amino)pyrimidin-4-yl)-2-methylphenyl)ethyl)-1,2,4-oxadiazole-5-carboxamide]",> 10000 nM
9.9 nM,"Cc1cc(-c2cc(Nc3ccc(N4CCN(C(=O)Cc5cccc(N6CCC(=O)NC6=O)c5)CC4)cn3)ncn2)ccc1[C@@H](C)NC(=O)c1nc(C(C)(C)C)no1 [Example 56, (R)-3-(tert-butyl)-N-(1-(4-(6-((5-(4-(2-(3-(2,4-dioxotetrahydropyrimidin-1(2H)-yl)phenyl)acetyl)piperazin-1-yl)pyridin-2-yl)amino)pyrimidin-4-yl)-2-methylphenyl)ethyl)-1,2,4-oxadiazole-5-carboxamide]",> 10000 nM
29.5 nM,"Cc1cc(-c2cc(Nc3ccc(N4CCN(CC5CCN(c6cccc(CN7CCC(=O)NC7=O)c6)CC5)CC4)cn3)ncn2)ccc1[C@@H](C)NC(=O)c1nc(C(C)(C)C)no1 [Example 57, (R)-3-(tert-butyl)-N-(1-(4-(6-((5-(4-((1-(3-((2,4-dioxotetrahydropyrimidin-1(2H)-yl)methyl)phenyl)piperidin-4-yl)methyl)piperazin-1-yl)pyridin-2-yl)amino)pyrimidin-4-yl)-2-methylphenyl)ethyl)-1,2,4-oxadiazole-5-carboxamide]",> 10000 nM
